Reference: patent US10968198B2, “Biaryltriazole inhibitors of macrophage migration inhibitory factor” (YALE UNIVERSITY, priority 2015, dated 2021)

Molecular target: human MIF (Homo sapiens (Human), UniProt P14174)
Assay: X-ray crystallography of complexes with human MIF
Settings: co-crystal or soak
Method: The solution was centrifuged at 13,000×g to remove precipitated compound and used to set up hanging-drop crystallization experiments. A reservoir of 2.0 M ammonium sulfate, 0.1 M Tris pH 7, and 3% isopropanol was added to the protein solution in a 1:1 ratio and stored at 20° C. Diffraction-quality crystals with a rod morphology grew within two weeks. The crystals were cryo-protected in 25% glycerol, 2.0M ammonium sulfate, 0.1 M Tris pH 7, and 3% isopropanol. Data was collected at the Advanced Photon Source remotely on the NE-CAT 24-ID-E beam line. […] Crystals were obtained by the hanging-drop method at 20° C. A reservoir of 2.2 M ammonium sulfate, 0.1 M Tris pH 7, and 3% isopropanol mixed in a 1:1 ratio with rhMIF (16 mg/mL) was used to produce 2 μL drops. […] Crystals were cryo-protected with 25% glycerol, 2.2 M ammonium sulfate, 0.1 M Tris pH 7, and 3% isopropanol. […] HKL2000 was used to index, integrate, and scale the MIF-3a data set in the […] space group and the MIF-3b in the P212121 space group. Phases were obtained by molecular replacement with PDB file 3U18 using the CCP4 and PHASER programs. Model building was performed in COOT with iterative restrained refinement with REFMAC.

SMILES	binding site in X-ray crystal structure of complex with human MIF
Oc1ccc(-n2cc(-c3ccc4ccccc4n3)nn2)cc1 [Example 3a, 4-(4-(quinolin-2-yl)-1H-1,2,3-triazol-1-yl)phenol]	binding of these inhibitors in the tautomerase active site
COCCOc1ccc2nc(-c3cn(-c4ccc(O)cc4)nn3)ccc2c1 [Example 3b, 4-(4-(6-(2-methoxyethoxy)quinolin-2-yl)-1H-1,2,3-triazol-1-yl)phenol]	binding of these inhibitors in the tautomerase active site
Oc1ccc(-n2cc(-c3ccc4cc(OCCOCCN5CCOCC5)ccc4n3)nn2)cc1 [Example 3v, 4-(4-(6-(2-(2-morpholinoethoxy)ethoxy)quinolin-2-yl)-1H-1,2,3-triazol-1-yl)phenol]	binding of these inhibitors in the tautomerase active site
